Measurements reported in PubChem BioAssay (NCI).
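Grown in 96-well plates, cells were treated for 48 hours with each compound at five concentrations. Insufficient inhibition: endpoint recorded as highest concentration tested. TGI: total growth inhibition.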

Assays:
Assay in all cases: inhibition of tumour cell growth, NCI panel, 48 h
KM12 colon = test system: KM12 colon
DU-145 prostate = test system: DU-145 prostate
BT-549 breast = test system: BT-549 breast
CAKI-1 renal = test system: CAKI-1 renal
SNB-78 CNS = test system: SNB-78 CNS
DLD-1 colon = test system: DLD-1 colon
M19-MEL melanoma = test system: M19-MEL melanoma
SK-OV-3 ovarian = test system: SK-OV-3 ovarian
LOX IMVI melanoma = test system: LOX IMVI melanoma
SK-MEL-28 melanoma = test system: SK-MEL-28 melanoma
A549 NSCLC = test system: A549 NSCLC
MDA-N = test system: MDA-N
UACC-257 melanoma = test system: UACC-257 melanoma
RPMI-8226 leukemia = test system: RPMI-8226 leukemia
HCT-15 colon = test system: HCT-15 colon
DMS 273 small cell lung = test system: DMS 273 small cell lung
KM20L2 colon = test system: KM20L2 colon
SW-620 colon = test system: SW-620 colon
LXFL 529 NSCLC = test system: LXFL 529 NSCLC
DMS 114 small cell lung = test system: DMS 114 small cell lung

Compound	TGI (KM12 colon)	TGI (DU-145 prostate)	TGI (BT-549 breast)	TGI (CAKI-1 renal)	TGI (SNB-78 CNS)	TGI (DLD-1 colon)	TGI (M19-MEL melanoma)	TGI (SK-OV-3 ovarian)	TGI (LOX IMVI melanoma)	TGI (SK-MEL-28 melanoma)	TGI (A549 NSCLC)	TGI (MDA-N)	TGI (UACC-257 melanoma)	TGI (RPMI-8226 leukemia)	TGI (HCT-15 colon)	TGI (DMS 273 small cell lung)	TGI (KM20L2 colon)	TGI (SW-620 colon)	TGI (LXFL 529 NSCLC)	TGI (DMS 114 small cell lung)
Cc1nc(-n2nc(-c3ccccc3)cc2-c2ccccc2)sc1C(=O)/C=C/c1ccc([N+](=O)[O-])cc1	38.1 µM	> 100 µM	39.5 µM	> 55 µM	> 100 µM	36.2 µM	98.9 µM	> 100 µM	52.5 µM	> 100 µM	> 100 µM	59.8 µM	> 71.7 µM	23.5 µM	> 61.9 µM	> 100 µM	> 100 µM	> 71.2 µM		
N#Cc1ccccc1NC(=O)C(=O)C(C(=O)c1ccncc1)C1OC(=O)c2ccccc21 (configuration not stated)	> 100 µM			> 100 µM	> 100 µM	> 100 µM	> 100 µM	> 100 µM	> 100 µM	> 100 µM	> 100 µM		> 100 µM		> 100 µM		> 100 µM	> 100 µM	> 100 µM	> 100 µM
Cc1cc2c(=O)c(C)n[nH]c2c(C#N)c1C						> 100 µM	> 100 µM	> 100 µM	> 100 µM	> 100 µM	> 100 µM		> 100 µM	> 100 µM	> 100 µM	> 100 µM	> 100 µM	> 100 µM	> 100 µM	
N#Cc1ccc(OCCSCCCCCCCCCCSCCOc2ccc(C#N)cc2)cc1	> 100 µM				> 100 µM		> 100 µM	> 100 µM	> 100 µM	> 100 µM	> 100 µM		> 100 µM	> 100 µM	> 100 µM		> 100 µM	> 100 µM	> 100 µM	> 100 µM
CS(=O)(=O)NNS(=O)(=O)c1ccc(F)cc1	> 100 µM			> 100 µM		> 100 µM	> 100 µM		> 100 µM		> 100 µM		> 100 µM	> 100 µM	> 100 µM	> 100 µM	> 100 µM	> 100 µM	> 100 µM	> 100 µM
COC(=O)/C(=N\NC(N)=O)C(C#N)c1ccccc1 (configuration not stated)	> 100 µM				> 100 µM	> 100 µM	> 100 µM	> 100 µM	> 100 µM	> 100 µM	> 100 µM		> 100 µM	> 100 µM	> 100 µM		> 100 µM	> 100 µM	> 100 µM	> 100 µM
Oc1ccc(C2Oc3cc(O)cc4c3C2c2cc(O)cc3c2C(c2cc(O)cc5c2C4C(c2ccc(O)cc2)O5)C(c2ccc(O)cc2)O3)cc1 (configuration not stated)	> 25 µM			> 25 µM		> 25 µM	> 25 µM		> 25 µM	16.9 µM	> 25 µM		> 25 µM	24.3 µM	> 25 µM	> 25 µM	> 25 µM	> 25 µM	> 25 µM	> 25 µM
CC1SC2=NC3=C(c4ccccc4C3=O)C(c3ccccc3Cl)N2C1=O (configuration not stated)	> 100 µM			> 100 µM		> 100 µM	> 100 µM	> 100 µM	> 100 µM	> 100 µM	> 100 µM		> 100 µM	> 100 µM	> 100 µM	> 100 µM	> 100 µM	> 100 µM	> 100 µM	> 100 µM
CN1N=C2c3ccccc3OC(c3ccccc3)[C@H]2C1c1ccccc1 (some centres not stated)	> 100 µM				> 100 µM	> 100 µM	> 100 µM	> 100 µM	> 100 µM	> 100 µM	> 100 µM		> 100 µM	> 100 µM	> 100 µM	> 100 µM	> 100 µM	> 100 µM	> 100 µM	> 100 µM
O=C(CC1(O)C(=O)Nc2ccc([N+](=O)[O-])cc21)c1ccncc1 (configuration not stated)	> 100 µM				> 100 µM	> 100 µM	63.1 µM	> 100 µM	29.3 µM	> 100 µM	> 100 µM		32.9 µM	68.6 µM	> 100 µM		> 100 µM	47.9 µM		82.8 µM
CC12C3CC4C5CC(C(C53)[C@@H]1NCc1ccccc1)C42 (some centres not stated)	> 100 µM			> 100 µM	> 100 µM	> 100 µM		> 100 µM	> 100 µM	> 100 µM	> 100 µM		> 100 µM	> 100 µM	> 100 µM	> 100 µM	> 100 µM	> 100 µM	> 100 µM	> 100 µM
CCc1ccc(Cc2ccc(CC)c(NC(=O)C(=O)C3NC(=S)NC3=O)c2CC)c(CC)c1NC(=O)C(=O)C1NC(=S)NC1=O (configuration not stated)	> 100 µM			> 100 µM	> 100 µM	> 100 µM	> 100 µM	> 100 µM	> 100 µM	> 100 µM	> 100 µM		> 100 µM	> 100 µM	> 100 µM	> 100 µM	> 100 µM	> 100 µM	> 100 µM	
COC(=O)c1sc2c(=O)c(C(=O)OC)c(C(=O)OC)sc2c(=O)c1C(=O)OC	> 100 µM	> 100 µM	> 100 µM	> 100 µM				> 100 µM	> 100 µM	> 100 µM	> 100 µM	> 100 µM	> 100 µM	> 100 µM	> 100 µM			> 100 µM		
Cc1cccc2c(NCCN(C)C)c3cccc(C(=O)NCCN(C)C)c3nc12	1.04 µM	3.61 µM	4.55 µM	4.92 µM				27.1 µM	1.76 µM	8.37 µM	29.2 µM	0.9 µM	2.47 µM	0.21 µM	13.9 µM			7.78 µM		
C1=CCC[C@@H]2CN3CCCC/C=C\CCCC[C@H]4C[C@H](CN(CCCCCCCC1)C4)[C@H]2CC3	15.6 µM	> 50 µM	29.8 µM	18.2 µM				> 50 µM	16 µM	14.7 µM	17.8 µM	16.2 µM	18.1 µM	16.7 µM	18.3 µM			16.4 µM		
C=CCCCN1CCCCC1=S	> 100 µM					> 100 µM	> 100 µM	> 100 µM	> 100 µM	> 100 µM	> 100 µM		> 100 µM	> 100 µM	> 100 µM	> 100 µM	> 100 µM	> 100 µM		> 100 µM
O=C(O)/C=C/c1ccc(OS(=O)(=O)O)cc1	> 100 µM	> 100 µM	> 100 µM	> 100 µM				> 100 µM	> 100 µM	> 100 µM	> 100 µM	> 100 µM	> 100 µM	> 100 µM	> 100 µM			> 100 µM		
COc1cccc(C=O)c1[O-].COc1cccc(C=O)c1[O-].[Zn+2]	> 100 µM				> 100 µM	> 100 µM	98.6 µM	> 100 µM	> 100 µM	> 100 µM	> 100 µM		99.2 µM	> 100 µM	> 100 µM	> 100 µM	> 100 µM	> 100 µM	> 100 µM	> 100 µM
O=C1/C(=C/c2ccccc2)CCc2ccc([N+](=O)[O-])cc21	> 100 µM	> 100 µM	> 94.4 µM	> 100 µM				> 100 µM	> 100 µM	> 100 µM	> 100 µM	> 100 µM	> 100 µM	7.13 µM	> 100 µM			> 100 µM		
COc1ccc(-c2cc(=O)c3cc(Cl)ccc3[nH]2)cc1	> 100 µM				> 100 µM	> 100 µM	> 100 µM	> 100 µM	> 100 µM	> 100 µM			> 100 µM	> 100 µM			> 100 µM	> 100 µM	> 100 µM	> 100 µM
Cn1ccc(=NS(=O)(=O)c2ccccc2)cc1	> 100 µM				> 100 µM	> 100 µM	> 100 µM	> 100 µM	> 100 µM	> 100 µM	> 100 µM		> 100 µM	> 100 µM		> 100 µM	> 100 µM	> 100 µM	> 100 µM	> 100 µM
COn1oc(=O)c2ccccc21	> 100 µM	> 100 µM	> 100 µM	> 100 µM				> 100 µM	> 100 µM	> 100 µM	> 100 µM	> 100 µM	> 100 µM	> 100 µM	> 100 µM			> 100 µM		
Cc1nn(C(=O)Cc2ccccc2)c2c1C(c1ccc([N+](=O)[O-])cc1)SC(N)=N2 (configuration not stated)	> 100 µM	> 100 µM	> 100 µM	> 100 µM				> 100 µM	> 100 µM	> 100 µM	> 100 µM	> 100 µM	> 100 µM	> 100 µM	> 100 µM			> 100 µM		
Cc1cccc(N=Cc2ccc(N(CCC#N)S(=O)(=O)c3ccccc3)cc2C)c1	> 100 µM			> 100 µM		> 100 µM	> 100 µM	> 100 µM	> 100 µM	> 100 µM	> 100 µM		> 100 µM	> 100 µM	> 100 µM	> 100 µM	> 100 µM	> 100 µM	> 100 µM	> 100 µM
CN/N=C(\C(=O)Nc1ccc(C(F)(F)F)cc1[N+](=O)[O-])C(c1cnc2ccc([N+](=O)[O-])cc2n1)[N+](=O)[O-] (configuration not stated)	> 100 µM			> 100 µM	> 100 µM	> 100 µM	> 100 µM	> 100 µM	> 100 µM	> 100 µM	> 100 µM		> 100 µM	> 100 µM	> 100 µM			> 100 µM	> 100 µM	> 100 µM
O=C(c1ccccc1)N(CCCCNC(=O)C(F)(F)F)CCCNC(=O)C(F)(F)F	> 100 µM	> 100 µM	> 100 µM	> 100 µM				> 100 µM	> 100 µM	> 100 µM	> 100 µM	> 100 µM	> 100 µM	> 100 µM	> 100 µM			> 100 µM		
CO/N=C(/C(=O)Nc1c[n+](CC(=O)[O-])cs1)c1csc(N)n1	> 100 µM			> 100 µM	> 100 µM	> 100 µM		> 100 µM	> 100 µM		> 100 µM		> 100 µM	> 100 µM	> 100 µM	> 100 µM	> 100 µM	> 100 µM	> 100 µM	
COc1ccccc1/C=N/Nc1nnc2c3ccccc3c3ncccc3c2n1	> 100 µM	> 100 µM	> 100 µM	> 100 µM				> 100 µM	> 100 µM	> 100 µM	> 100 µM	> 100 µM	> 100 µM	> 100 µM	> 100 µM			> 100 µM		
O=[N+]([O-])c1cccc(C2=NN(c3ccccc3)C3c4ccccc4OCC23)c1 (configuration not stated)	> 100 µM				> 100 µM	> 100 µM	> 100 µM	> 100 µM	> 100 µM	> 100 µM	> 100 µM		> 100 µM	> 100 µM		> 100 µM	> 100 µM	> 100 µM	> 100 µM	> 100 µM
O=C(O[C@H]1[C@@H]2C=CO[C@@H](OC3OC(CO)C(O)C(O)C3O)[C@@H]2[C@@]2(CO)O[C@@H]12)c1ccc(O)c(O)c1 (some centres not stated)	> 100 µM			> 100 µM	> 100 µM	> 100 µM	> 100 µM	> 100 µM	> 100 µM	> 100 µM	> 100 µM		> 100 µM	> 100 µM		> 100 µM	> 100 µM	> 100 µM	> 100 µM	
